# In patent US9096951B2, “Method for producing second-generation library” (Nuevolution A/S, priority 2003, dated 2015):
# Molecular target: integrin aVβ3 (Homo sapiens, UniProt P05106+P06756)
# Assay: Selection of the 700-member encoded library on immobilised integrin aVβ3, then PCR, cloning and sequencing of identifier codons
# Format: binding
# Conditions: 700-member library after selection; out of 51 sequences; single building block at its position
# Method: Maxisorp ELISA wells (NUNC A/S, Denmark) were coated with each 100 μL 2 μg/mL integrin aVβ3 in PBS buffer [2.8 mM NaH2PO4, 7.2 mM Na2HPO4, 0.15 M NaCl, pH 7.2] overnight at 4° C. Then the integrin solution was substituted for 200 μl blocking buffer [TBS, 0.05% Tween 20 (Sigma P-9416), 1% bovine serum alnumin (Sigma A-7030), 1 mM MnCl2] which was left on for 3 hours at room temperature. Then the wells were washed 10 times with blocking buffer and the encoded library was added to the wells after diluting it 100 times with blocking buffer. Following 2 hours incubation at room temperature the wells were washed 10 times with blocking buffer. After the final wash the wells were cleared of wash buffer and subsequently inverted and exposed to UV light at 300-350 nm for 30 seconds using a trans-illuminator set at 70% power. Then 100 μl blocking buffer without Tween-20 was immediately added to each well, the wells were shaken for 30 seconds, and the solutions containing eluted identifiers were removed for PCR amplification.
# A TOPO-TA (Invitrogen) ligation reaction is assembled with 4 μl PCR product, 1 μl salt solution (Invitrogen) and 1 μl vector. Water is added to 6 μl. The reaction is then incubated at RT for 30 min. Heat-shock competent TOP10 E. coli cells are then thawed on ice and 5 μl of the ligation reaction is added to the thawed cells. The cells are then incubated 30 min on ice, heatshocked in 42° C. water for 30 sec, and then put on ice again. 250 μl of growth medium is added to the cells and they are incubated 1 h at 37° C. The medium containing cells is then spread on a growth plate containing 100 μg/ml ampicillin and incubated at 37° C. for 16 hours.
# Individual E. coli clones are then picked and transferred to PCR wells containing 50 μl water. These 50 μl were incubated at 94° C. for 5 minutes and used in a 20 μl in a 25 μl PCR reaction with […] of each TOPO primer M13 forward & M13 reverse and Ready-To-Go PCR beads (Amersham Biosciences). The following PCR profile is used: 94° C. 2 min, then 30×(94° C. 4 sec, 50° C. 30 sec, 72° C. 1, min) then 72° C. 10 min. Primers and nucleotides are then degraded by adding 1 μl 1:1 EXO/SAP mixture (USB corp.) to 2 μl PCR product and incubating at 37° C. for 15 min and then 80° C. for 15 min to heat-inactivate the enzymes. […] T7 primer is added and water is added to 12 μl. Then 8 μl DYEnamic ET cycle sequencing Terminator Mix (Applied biosystems) is added to each well. A thermocycling profile of 30×(95° C. 20 sec, 50° C. 15 sec, 60° C. 1 min) is then run. Then 10 μl water is added to each well and sequencing reactions are purified using seq96 spinplates (Amersham Biosciences). Reactions are then run on a MegaBace capillary electrophoresis instrument (Molecular Dynamics) using injection parameters 2 kV, 50 sec and run parameters: 9 kV 45 min and analyzed using Contig Express software (Informax).
# After the selection as described above, the codons in the identifier oligonucleotides were analysed. Before the analysis, the identifier oligonucleotides were amplified using the constant flanking regions and the amplified material was used in the identifier sequence analysis.
# integrin aVβ3, sequence (P06756 31-889 limits assumed): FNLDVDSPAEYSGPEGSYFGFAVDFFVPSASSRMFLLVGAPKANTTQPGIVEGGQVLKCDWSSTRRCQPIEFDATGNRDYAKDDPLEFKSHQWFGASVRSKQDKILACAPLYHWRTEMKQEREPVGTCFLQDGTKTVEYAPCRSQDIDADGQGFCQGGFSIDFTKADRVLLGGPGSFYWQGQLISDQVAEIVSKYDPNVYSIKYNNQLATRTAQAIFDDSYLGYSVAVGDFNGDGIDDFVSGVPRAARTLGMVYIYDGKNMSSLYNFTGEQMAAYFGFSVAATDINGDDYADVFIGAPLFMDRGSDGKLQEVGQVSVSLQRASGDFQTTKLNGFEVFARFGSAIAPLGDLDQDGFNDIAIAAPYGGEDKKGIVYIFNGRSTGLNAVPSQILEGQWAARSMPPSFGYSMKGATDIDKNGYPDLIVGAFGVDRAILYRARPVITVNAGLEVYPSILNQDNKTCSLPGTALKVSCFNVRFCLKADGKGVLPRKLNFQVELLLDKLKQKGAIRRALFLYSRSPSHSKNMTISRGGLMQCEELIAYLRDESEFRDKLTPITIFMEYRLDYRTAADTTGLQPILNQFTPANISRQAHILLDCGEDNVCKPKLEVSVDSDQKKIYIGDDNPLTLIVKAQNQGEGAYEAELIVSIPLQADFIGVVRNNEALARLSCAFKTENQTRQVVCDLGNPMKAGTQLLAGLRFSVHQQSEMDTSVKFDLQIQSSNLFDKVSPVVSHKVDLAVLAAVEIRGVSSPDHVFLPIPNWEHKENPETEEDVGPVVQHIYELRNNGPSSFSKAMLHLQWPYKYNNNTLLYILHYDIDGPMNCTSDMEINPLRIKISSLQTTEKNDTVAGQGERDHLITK
# integrin aVβ3, sequence (P06756 891-1048 partner limits assumed): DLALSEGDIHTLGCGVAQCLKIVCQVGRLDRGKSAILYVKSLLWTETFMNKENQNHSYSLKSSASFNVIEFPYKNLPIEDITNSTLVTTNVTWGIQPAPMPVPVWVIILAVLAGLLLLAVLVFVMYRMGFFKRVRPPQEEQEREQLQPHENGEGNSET
# integrin aVβ3, sequence (P05106 27-788): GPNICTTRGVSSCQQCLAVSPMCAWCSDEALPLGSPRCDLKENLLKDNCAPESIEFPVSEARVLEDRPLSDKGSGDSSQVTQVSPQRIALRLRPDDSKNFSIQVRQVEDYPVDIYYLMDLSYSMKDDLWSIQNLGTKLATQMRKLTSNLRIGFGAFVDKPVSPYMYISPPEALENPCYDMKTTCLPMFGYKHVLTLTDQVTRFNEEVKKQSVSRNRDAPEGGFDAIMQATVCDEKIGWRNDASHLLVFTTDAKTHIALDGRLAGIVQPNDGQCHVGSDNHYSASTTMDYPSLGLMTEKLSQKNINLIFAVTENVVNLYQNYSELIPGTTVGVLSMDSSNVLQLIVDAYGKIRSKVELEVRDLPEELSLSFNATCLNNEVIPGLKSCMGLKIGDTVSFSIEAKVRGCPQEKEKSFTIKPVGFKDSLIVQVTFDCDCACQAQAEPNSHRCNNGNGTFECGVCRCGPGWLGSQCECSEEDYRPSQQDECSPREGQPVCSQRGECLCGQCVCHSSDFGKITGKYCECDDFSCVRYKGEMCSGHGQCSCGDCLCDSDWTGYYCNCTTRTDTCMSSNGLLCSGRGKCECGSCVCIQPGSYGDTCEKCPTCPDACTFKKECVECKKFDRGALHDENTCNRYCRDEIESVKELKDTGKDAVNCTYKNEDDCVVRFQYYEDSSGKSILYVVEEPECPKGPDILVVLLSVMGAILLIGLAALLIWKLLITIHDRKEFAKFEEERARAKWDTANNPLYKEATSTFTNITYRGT
row,Structure (SMILES),Count (times the chemical entity's codon was seen after selection)
1,C=CCCC(=O)N1CCC[C@@H]1C(=O)O [BBA000064],1
2,"C=CCCC(=O)N[C@@H](C)CC(=O)O [BBA000099, Gly]",14
3,C=CCCC(=O)N(CCC)CCC(=O)O [BBA0001101],2
4,O=C(O)CCCc1ccc2c(n1)NCCC2 [BBA0001006],4
5,CC(CCC(=O)O)Nc1ccccn1 (stereo not shown) [BBA0001391],9
6,O=C(O)CCCNc1ccccn1 [BBA0000531],35
7,C=CCCC(=O)C(CCC(=O)O)CC1CC1 (stereo not shown) [BBA0001011],1
8,"N[C@@H](CC(=O)O)C(=O)O [BB-A-000098, L-Asp]",47

# Results, then the compound that gave them:
row,Count (times the chemical entity's codon was seen after selection),Structure (SMILES)
1,2,O=C(O)c1csc(-c2cccnc2)n1 [BBA0008512]
2,6,C=CCCC(=O)N1CCCC[C@@H]1C(=O)O [BBA0004242]
3,2,C=CCCC(=O)N1CCCC[C@H]1C(=O)O [BBA0004232]
4,1,C=CCCC(=O)N[C@H]1CCCC[C@H]1C(=O)O [BBA0003152]
5,1,CC(C)(C)OC(=O)NC(CCCCNC(=O)c1ccccn1)C(=O)O (stereo not shown) [BBA0008312]
6,2,C=CCCC(=O)NCc1ccc(C(=O)O)cc1 [BBA0003172]
7,1,C=CCCC(=O)NCc1cccc(C(=O)O)c1 [BBA0003132]
8,13,C=CCCC(=O)N1CC(C(=O)O)C1 [BBA0001582]
9,1,C=CCCC(=O)N1CCC[C@H]1C(=O)O [BBA0003142]
10,5,C=CCCC(=O)NCCCC(=O)O [BBA0004182]
11,2,C=CCCC(=O)N[C@H]1CC[C@@H](C(=O)O)C1 [BBA0004212]

# Same assay, conditions: before selection
row,share of the chemical entity before the selection [%],Structure (SMILES)
1,4,"C=CCCC(=O)N[C@@H](C)CC(=O)O [BBA000099, Gly]"
2,14,O=C(O)CCCNc1ccccn1 [BBA0000531]
3,25,"N[C@@H](CC(=O)O)C(=O)O [BB-A-000098, L-Asp]"

# Same assay, conditions: out of 51 sequences, after selection
row,share of sequences containing the chemical entity after selection [%],Structure (SMILES)
1,27,"C=CCCC(=O)N[C@@H](C)CC(=O)O [BBA000099, Gly]"
2,68,O=C(O)CCCNc1ccccn1 [BBA0000531]
3,92,"N[C@@H](CC(=O)O)C(=O)O [BB-A-000098, L-Asp]"

# Molecular target: T1, Integrin αvβ3 receptor (Homo sapiens, UniProt P05106+P06756)
# Assay: Selection of Library 1 and Library 2 (61,875 members each) for binders of the Integrin αvβ3 receptor, then building block abundance analysis
# Format: binding
# Conditions: building block chosen for Library 3 position 1; value = library (1, 2) in which it was more abundant after selection
# Excerpt: The following scheme describes the split and mix assembly of the libraries: • i.) n times [BB1+Oligo1→BB1−Oligo1] in separate wells • Optionally purify product • ii.) mix all n wells into one tube • iii.) split product of ii.) into m separate wells • iv.) m times [BB2+BB1−Oligo1+Oligo2→BB2−BB1−Oligo1−Oligo2] in separate wells • Optionally purify product • v.) mix all m wells into one tube • vi.) split product of v.) into p separate wells • vii.) p times [BB3+BB2−BB1−Oligo1−Oligo2+Oligo3→BB3−BB2−BB1−Oligo1−Oligo2−Oligo3] in separate wells Optionally purify product • viii.) mix all p wells into one tube • ix.) Selection was performed and binders isolated • x.) PCR of DNA and sequencing • xi.) Analyse for building block abundancy and full sequence information
# Building block abundances analysis may be done by QPCR or by sequencing full sequences and then analyzing for the abundance of individual building blocks.
# Two libraries of 61,875 members (Library 1 and 2) were generated as described in example 6 above and selected for binders of the Integrin αvβ3 receptor separately. The libraries were generated with 99 different building blocks in position 1, 25 different building blocks in position 2 and 25 different building blocks in position 3.
# (§1) The identified sequences were then analyzed for the abundances of building blocks at each position in the sequence. The most abundant building blocks at each position from the two libraries 1 and 2 were then used again to generate a new and smaller library of 1,365 members, which was selected for binders of the Integrin αvβ3 receptor. The library was generated with 7 different building blocks in position 1, 13 different building blocks in position 2 and 15 different building blocks in position 3.
# T1 sequence (P06756 31-889 limits assumed): as the sequence (P06756 31-889 limits assumed) above
# T1 sequence (P06756 891-1048 partner limits assumed): as the sequence (P06756 891-1048 partner limits assumed) above
# T1 sequence (P05106 27-788): as the sequence (P05106 27-788) above
row,More abundant in position 1 in library no.,Structure (SMILES)
1,1,"N[C@H](CC(=O)O)C(=O)O [BBA000152, D-Asp]"

# Same assay, conditions: building block chosen for Library 3 position 2; value = library (1, 2) in which it was more abundant after selection
row,More abundant in position 2 in library no.,Structure (SMILES)
1,1,C=CCCC(=O)N1CCCC(C(=O)O)C1 (stereo not shown) [BBA0000832]
2,2,"N[C@H](CC(=O)O)C(=O)O [BBA000152, D-Asp]"
3,2,C=CCCC(=O)N[C@@H]1CC[C@H](C(=O)O)C1 [BBA0004222]
4,1,C=CCCC(=O)NCC(=O)O [BBA0000592]

# Same assay, conditions: building block chosen for Library 3 position 3; value = library (1, 2) in which it was more abundant after selection
row,More abundant in position 3 in library no.,Structure (SMILES)
1,2,CC(CCCC(=O)O)Nc1ccccn1 (stereo not shown) [BBA0001401]
2,2,CC(CCC(=O)O)Nc1ccccn1 (stereo not shown) [BBA0001391]
3,2,O=C(O)CCCNc1ccccn1 [BBA0000531]
4,1,"N[C@@H](CC(=O)O)C(=O)O [BB-A-000098, L-Asp]"

# Molecular target: T1, Integrin αvβ3 receptor
# Assay: Selection of the second-generation library (Library 3, 1,365 members) for binders of the Integrin αvβ3 receptor, then sequencing of isolated identifiers
# Format: binding
# Conditions: 31 analysed sequences
# Method: as §1
# A subset of the isolated sequences from the library post selection was analysed:
# These sequences could be translated into the following building block compositions: […]
row,building block abundance per position in sequences isolated post selection,Structure (SMILES)
1,dominated,"C=CCCC(=O)N[C@@H](C)CC(=O)O [BBA000099, Gly]"
2,also found,"N[C@H](CC(=O)O)C(=O)O [BBA000152, D-Asp]"
3,dominated,"N[C@@H](CC(=O)O)C(=O)O [BB-A-000098, L-Asp]"
